Measured values from patent US20210395262A1, “INHIBITORS OF HUMAN IMMUNODEFICIENCY VIRUS REPLICATION” (ViiV HEALTHCARE UK (NO.5) LIMITED, priority 2018, published 2021).

Key:
[1] = test system: recombinant NL4-3 virus; assay: HIV cell culture assay (antiviral activity, luciferase readout in MT-2 cells); assay type: cell-based; details: Human immunodeficiency virus 1, NL43, MT2
Experimental: HIV cell culture assay—MT-2 cells, 293T cells and the proviral DNA clone of NL4-3 virus were obtained from the […] AIDS Research and Reference Reagent Program. MT-2 cells were propagated in RPMI 1640 media supplemented with 10% heat inactivated fetal bovine serum (FBS), […] penicillin G and up to 100 units/mL streptomycin. The 293T cells were propagated in DMEM media supplemented with 10% heat inactivated FBS, […] penicillin G and […] streptomycin. A recombinant NL4-3 proviral clone, in which a section of the nef gene was replaced with the Renilla luciferase gene, was used to make the reference virus used in these studies. The recombinant virus was prepared through transfection of the recombinant NL4-3 proviral clone into 293T cells using Transit-293 Transfection Reagent from Mirus Bio LLC (Madison, Wis.). Supernatent was harvested after 2-3 days and the amount of virus present was titered in MT-2 cells using luciferase enzyme activity as a marker by measuring luciferase enzyme activity. Luciferase was quantitated using the EnduRen Live Cell Substrate from Promega (Madison, Wis.). Antiviral activities of compounds toward the recombinant virus were quantified by measuring luciferase activity in MT-2 cells infected for 4-5 days with the recombinant virus in the presence of serial dilutions of the compound.
The 50% effective concentration (EC50) was calculated by using the exponential form of the median effect equation where (Fa)=1/[1+(ED50/drug conc.)m] (Johnson V A, Byington R T. Infectivity Assay. In Techniques in HIV Research. ed. Aldovini A, Walker B D. 71-76. New York: Stockton Press. 1990). The 50% inhibitory concentration (EC50) was calculated by using the exponential form of the median effect equation where percent inhibition=1/[1+(EC50/drug concentration)m], where m is a parameter that reflects the slope of the concentration-response curve.

[2] = Compound cytotoxicity, XTT-based colorimetric assay; assay type: cell-based; details: human; uninfected MT2 cells, day 4, XTT; read-out: CC50
Experimental: Compound cytotoxicity and the corresponding CC50 values were determined using the same protocol as described in the antiviral assay except that uninfected cells were used. Cytotoxicity was assessed on day 4 in uninfected MT2 cells by using a XTT (2,3-bis[2-Methoxy-4-nitro-5-sulfophenyl]-2H-tetrazolium-5-carboxyanilide inner salt)-based colorimetric assay (Sigma-Aldrich, St Louis, Mo.).

Structure (SMILES) | EC50 [1] [nM] | CC50 at 4 days [2] [nM]
C[C@@H]1CN(c2ccc3c(=O)n(-c4ccc(Cl)c5c(NS(C)(=O)=O)nn(CC(F)(F)F)c45)c([C@H](Cc4cc(F)cc(F)c4)NC(=O)Cn4nc(C(F)(F)F)c5c4C(F)(F)[C@@H]4C[C@H]54)nc3c2)C[C@H](C)O1 (atropisomer, axis not shown; (P)) [Example 61, N—((S)-1-((3P)-3-(4-chloro-3-(methylsulfonamido)-1-(2,2,2-trifluoroethyl)-1H-indazol-7-yl)-7-((2S,6R)-2,6-dimethylmorpholino)-4-oxo-3,4-dihydroquinazolin-2-yl)-2-(3,5-difluorophenyl)ethyl)-2-((3bS,4aR)-5,5-difluoro-3-(trifluoromethyl)-3b,4,4a,5-tetrahydro-1H-cyclopropa[3,4]cyclopenta[1,2-c]pyrazol-1-yl)acetamide] | 0.084 | > 500
Cn1nc(NS(C)(=O)=O)c2c(Cl)ccc(-n3c([C@H](Cc4cc(F)cc(F)c4)NC(=O)Cn4nc(C(F)F)c5c4C(F)(F)[C@@H]4C[C@H]54)nc4cc(N5CCCCCC5)ccc4c3=O)c21 (atropisomer, axis not shown; (P)) [Example 2, N—((S)-1-(7-(azepan-1-yl)-(3P)-3-(4-chloro-1-methyl-3-(methylsulfonamido)-1H-indazol-7-yl)-4-oxo-3,4-dihydroquinazolin-2-yl)-2-(3,5-difluorophenyl)ethyl)-2-((3bS,4aR)-3-(difluoromethyl)-5,5-difluoro-3b,4,4a,5-tetrahydro-1H-cyclopropa[3,4]cyclopenta[1,2-c]pyrazol-1-yl)acetamide] | 0.243 | > 500
C[C@@H]1CN(c2ccc3c(=O)n(-c4ccc(Cl)c5c(NS(=O)(=O)C6CC6)nn(CC(F)(F)F)c45)c([C@H](Cc4cc(F)cc(F)c4)NC(=O)Cn4nc(C(F)F)c5c4C(F)(F)[C@@H]4C[C@H]54)nc3c2)C[C@H](C)O1 (atropisomer, axis not shown; (P)) [Example 62, N—((S)-1-((3P)-3-(4-chloro-3-(cyclopropanesulfonamido)-1-(2,2,2-trifluoroethyl)-1H-indazol-7-yl)-7-((2S,6R)-2,6-dimethylmorpholino)-4-oxo-3,4-dihydroquinazolin-2-yl)-2-(3,5-difluorophenyl)ethyl)-2-((3bS,4aR)-3-(difluoromethyl)-5,5-difluoro-3b,4,4a,5-tetrahydro-1H-cyclopropa[3,4]cyclopenta[1,2-c]pyrazol-1-yl)acetamide] | 0.067 | > 500
Cn1nc(NS(C)(=O)=O)c2c(Cl)ccc(-n3c([C@H](Cc4cc(F)cc(F)c4)NC(=O)Cn4nc(C(F)F)c5c4C(F)(F)[C@@H]4C[C@H]54)nc4cc(N5CC(S(C)(=O)=O)C5)ccc4c3=O)c21 (atropisomer, axis not shown; (P)) [Example 26, N—((S)-1-((3P)-3-(4-chloro-1-methyl-3-(methylsulfonamido)-1H-indazol-7-yl)-7-(3-(methylsulfonyl)azetidin-1-yl)-4-oxo-3,4-dihydroquinazolin-2-yl)-2-(3,5-difluorophenyl)ethyl)-2-((3bS,4aR)-3-(difluoromethyl)-5,5-difluoro-3b,4,4a,5-tetrahydro-1H-cyclopropa[3,4]cyclopenta[1,2-c]pyrazol-1-yl)acetamide] | 0.295 | > 500
Cn1nc(NS(C)(=O)=O)c2c(Cl)ccc(-n3c([C@H](Cc4cc(F)cc(F)c4)NC(=O)Cn4nc(C(F)F)c5c4C(F)(F)[C@@H]4C[C@H]54)nc4cc(N5CCCCC5)ccc4c3=O)c21 (atropisomer, axis not shown; (P)) [Example 14, N—((S)-1-((3P)-3-(4-chloro-1-methyl-3-(methylsulfonamido)-1H-indazol-7-yl)-4-oxo-7-(piperidin-1-yl)-3,4-dihydroquinazolin-2-yl)-2-(3,5-difluorophenyl)ethyl)-2-((3bS,4aR)-3-(difluoromethyl)-5,5-difluoro-3b,4,4a,5-tetrahydro-1H-cyclopropa[3,4]cyclopenta[1,2-c]pyrazol-1-yl)acetamide] | 0.242 | > 1000
C[C@@H]1CN(c2ccc3c(=O)n(-c4ccc(Cl)c5c(NS(C)(=O)=O)nn(CC(F)(F)F)c45)c([C@H](Cc4cc(F)cc(F)c4)NC(=O)Cn4nc(C(F)F)c5c4C(F)(F)[C@@H]4C[C@H]54)nc3c2)C[C@H](C)O1 (atropisomer, axis not shown; (P)) [Example 58, N—((S)-1-((3P)-3-(4-chloro-3-(methylsulfonamido)-1-(2,2,2-trifluoroethyl)-1H-indazol-7-yl)-7-((2S,6R)-2,6-dimethylmorpholino)-4-oxo-3,4-dihydroquinazolin-2-yl)-2-(3,5-difluorophenyl)ethyl)-2-((3bS,4aR)-3-(difluoromethyl)-5,5-difluoro-3b,4,4a,5-tetrahydro-1H-cyclopropa[3,4]cyclopenta[1,2-c]pyrazol-1-yl)acetamide] | 0.053 | > 500
CN1CCN(c2ccc3c(=O)n(-c4ccc(Cl)c5c(NS(C)(=O)=O)nn(C)c45)c([C@H](Cc4cc(F)cc(F)c4)NC(=O)Cn4nc(C(F)F)c5c4C(F)(F)[C@@H]4C[C@H]54)nc3c2)CC1 (atropisomer, axis not shown; (P)) [Example 11, N—((S)-1-((3P)-3-(4-chloro-1-methyl-3-(methylsulfonamido)-1H-indazol-7-yl)-7-(4-methylpiperazin-1-yl)-4-oxo-3,4-dihydroquinazolin-2-yl)-2-(3,5-difluorophenyl)ethyl)-2-((3bS,4aR)-3-(difluoromethyl)-5,5-difluoro-3b,4,4a,5-tetrahydro-1H-cyclopropa[3,4]cyclopenta[1,2-c]pyrazol-1-yl)acetamide] | 0.117 | > 10000
C[C@@H]1CN(c2ccc3c(=O)n(-c4ccc(Cl)c5c(NS(C)(=O)=O)nn(C)c45)c([C@H](Cc4cc(F)cc(F)c4)NC(=O)Cn4nc(C(F)F)c5c4C(F)(F)[C@@H]4C[C@H]54)nc3c2)C[C@H](C)N1C (atropisomer, axis not shown; (P)) [Example 16, N—((S)-1-((3P)-3-(4-chloro-1-methyl-3-(methylsulfonamido)-1H-indazol-7-yl)-4-oxo-7-((3S,5R)-3,4,5-trimethylpiperazin-1-yl)-3,4-dihydroquinazolin-2-yl)-2-(3,5-difluorophenyl)ethyl)-2-((3bS,4aR)-3-(difluoromethyl)-5,5-difluoro-3b,4,4a,5-tetrahydro-1H-cyclopropa[3,4]cyclopenta[1,2-c]pyrazol-1-yl)acetamide] | 0.08 | > 1000
O=C(Cn1nc(C(F)F)cc1C(F)F)N[C@@H](Cc1cc(F)cc(F)c1)c1nc2cc(N3CCOCC3)ccc2c(=O)n1-c1ccc(Cl)c2c(NS(=O)(=O)C3CC3)nn(CC(F)F)c12 (atropisomer, axis not shown; (P)) [Example 36, (S)-2-(3,5-bis(difluoromethyl)-1H-pyrazol-1-yl)-N-(1-((3P)-3-(4-chloro-3-(cyclopropanesulfonamido)-1-(2,2-difluoroethyl)-1H-indazol-7-yl)-7-morpholino-4-oxo-3,4-dihydroquinazolin-2-yl)-2-(3,5-difluorophenyl)ethyl)acetamide] | 2.31 | > 1000
Cn1nc(NS(C)(=O)=O)c2c(Cl)ccc(-n3c([C@H](Cc4cc(F)cc(F)c4)NC(=O)Cn4nc(C(F)F)c5c4C(F)(F)[C@@H]4C[C@H]54)nc4cc(N5CCC(O)CC5)ccc4c3=O)c21 (atropisomer, axis not shown; (P)) [Example 24, N—((S)-1-((3P)-3-(4-chloro-1-methyl-3-(methylsulfonamido)-1H-indazol-7-yl)-7-(4-hydroxypiperidin-1-yl)-4-oxo-3,4-dihydroquinazolin-2-yl)-2-(3,5-difluorophenyl)ethyl)-2-((3bS,4aR)-3-(difluoromethyl)-5,5-difluoro-3b,4,4a,5-tetrahydro-1H-cyclopropa[3,4]cyclopenta[1,2-c]pyrazol-1-yl)acetamide] | 0.118 | > 500
Cn1nc(NS(C)(=O)=O)c2c(Cl)ccc(-n3c([C@H](Cc4cc(F)cc(F)c4)NC(=O)Cn4nc(C(F)F)c5c4C(F)(F)[C@@H]4C[C@H]54)nc4cc(N5CCC[C@H]5CO)ccc4c3=O)c21 (atropisomer, axis not shown; (P)) [Example 35, N—((S)-1-((3P)-3-(4-chloro-1-methyl-3-(methylsulfonamido)-1H-indazol-7-yl)-7-((S)-2-(hydroxymethyl)pyrrolidin-1-yl)-4-oxo-3,4-dihydroquinazolin-2-yl)-2-(3,5-difluorophenyl)ethyl)-2-((3bS,4aR)-3-(difluoromethyl)-5,5-difluoro-3b,4,4a,5-tetrahydro-1H-cyclopropa[3,4]cyclopenta[1,2-c]pyrazol-1-yl)acetamide] | 0.272 | > 10000
